The values that follow come from patent US20240308976A1, “COMPOUNDS THAT MEDIATE PROTEIN DEGRADATION AND USES THEREOF” (Monte Rosa Therapeutics, Inc., priority 2021, published 2024).

The target of this assay is T1, GSPT1 (Homo sapiens, UniProt P15170+Q96SW2).
T1 construct: CAL-51 cells were purchased from DSMZ (cat. Number ACC302); host or cells: CAL-51
T1 sequence (P15170 whole entry): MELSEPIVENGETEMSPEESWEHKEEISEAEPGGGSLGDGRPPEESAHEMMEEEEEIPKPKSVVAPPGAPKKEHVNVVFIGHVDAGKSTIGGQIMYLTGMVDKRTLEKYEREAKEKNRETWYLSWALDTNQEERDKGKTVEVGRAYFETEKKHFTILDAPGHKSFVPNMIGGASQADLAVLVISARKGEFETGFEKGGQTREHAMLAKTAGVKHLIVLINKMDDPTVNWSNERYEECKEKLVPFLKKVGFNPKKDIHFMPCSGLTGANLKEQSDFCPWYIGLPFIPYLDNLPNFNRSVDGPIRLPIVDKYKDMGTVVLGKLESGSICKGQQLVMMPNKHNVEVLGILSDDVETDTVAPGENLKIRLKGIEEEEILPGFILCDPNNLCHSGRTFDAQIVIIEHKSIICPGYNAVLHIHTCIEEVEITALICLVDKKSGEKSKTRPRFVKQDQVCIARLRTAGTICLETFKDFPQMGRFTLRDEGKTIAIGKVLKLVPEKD
T1 sequence (Q96SW2 whole entry): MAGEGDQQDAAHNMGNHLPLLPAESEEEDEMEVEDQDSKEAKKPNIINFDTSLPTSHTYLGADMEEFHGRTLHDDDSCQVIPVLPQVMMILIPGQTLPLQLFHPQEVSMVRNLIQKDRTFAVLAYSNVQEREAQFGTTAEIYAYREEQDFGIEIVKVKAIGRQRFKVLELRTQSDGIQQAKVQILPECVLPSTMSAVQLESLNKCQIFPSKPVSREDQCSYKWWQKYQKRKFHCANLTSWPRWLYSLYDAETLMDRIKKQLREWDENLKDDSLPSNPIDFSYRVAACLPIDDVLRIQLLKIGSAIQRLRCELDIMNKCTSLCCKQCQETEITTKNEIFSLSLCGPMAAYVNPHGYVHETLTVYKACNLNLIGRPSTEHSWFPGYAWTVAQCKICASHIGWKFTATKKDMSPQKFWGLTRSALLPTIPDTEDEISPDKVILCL
T1 sequence (Q16531 2-1140 partner limits assumed): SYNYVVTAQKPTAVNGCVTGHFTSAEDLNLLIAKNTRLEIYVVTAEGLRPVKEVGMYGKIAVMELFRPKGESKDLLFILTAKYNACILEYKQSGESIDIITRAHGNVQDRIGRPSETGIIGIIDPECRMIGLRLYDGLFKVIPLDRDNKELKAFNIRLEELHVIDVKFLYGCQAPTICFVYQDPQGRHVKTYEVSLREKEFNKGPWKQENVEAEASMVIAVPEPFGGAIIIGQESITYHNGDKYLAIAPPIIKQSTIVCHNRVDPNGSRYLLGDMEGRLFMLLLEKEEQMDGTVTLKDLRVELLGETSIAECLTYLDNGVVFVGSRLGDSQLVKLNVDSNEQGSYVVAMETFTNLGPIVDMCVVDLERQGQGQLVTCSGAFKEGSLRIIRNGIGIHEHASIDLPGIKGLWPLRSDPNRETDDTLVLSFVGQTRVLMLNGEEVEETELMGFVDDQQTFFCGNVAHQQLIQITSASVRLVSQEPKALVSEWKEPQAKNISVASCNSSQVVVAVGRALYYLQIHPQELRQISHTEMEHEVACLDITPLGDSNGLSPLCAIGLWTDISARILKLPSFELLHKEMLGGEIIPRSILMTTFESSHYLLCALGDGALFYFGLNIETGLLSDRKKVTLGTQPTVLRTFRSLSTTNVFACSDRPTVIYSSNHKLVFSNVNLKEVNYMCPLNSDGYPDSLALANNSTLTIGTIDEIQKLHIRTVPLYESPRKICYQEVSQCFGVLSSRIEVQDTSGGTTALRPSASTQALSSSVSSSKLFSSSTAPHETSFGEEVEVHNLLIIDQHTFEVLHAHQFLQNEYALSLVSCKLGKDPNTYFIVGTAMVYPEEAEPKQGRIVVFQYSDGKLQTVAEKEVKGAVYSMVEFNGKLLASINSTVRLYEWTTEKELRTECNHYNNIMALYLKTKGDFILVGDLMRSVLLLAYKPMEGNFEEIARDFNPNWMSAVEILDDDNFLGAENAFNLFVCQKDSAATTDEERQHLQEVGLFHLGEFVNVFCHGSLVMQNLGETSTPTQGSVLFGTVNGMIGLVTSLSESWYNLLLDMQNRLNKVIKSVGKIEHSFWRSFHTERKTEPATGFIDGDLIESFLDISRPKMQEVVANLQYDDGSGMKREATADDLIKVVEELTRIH
Kind of assay: Immunofluorescence assay for activity to degrade GSPT1 in CAL-51 cells. It is filed as cell-based. Particulars: 6 h treatment, read-out: IF Class (GSPT1 degradation, DC50). The procedure: Example 147: Compound Activity by Immunofluorescence Assay
The representative compounds were tested in an immunofluorescence assay for their activity to degrade GSPT1. CAL-51 cells were purchased from DSMZ (cat. Number ACC302), sub-cultured in 90% Dulbecco's MEM (4.5 g/L glucose, Gibco 11965)+10% heat inactivated FBS (BioConcept, 2-01F136I) and incubated at 37° C., 5% CO2. For the assay imaging microtiter plate Cell Carrier 96 Ultra (Perkin Elmer 6055302) were pre-coated with Fibronectin (Sigma F085, 30 μL at 0.2 μg/mL) in PBS (100 μL, Gibco 14190) for 45 min at room temperature, rinsed with PBS and CAL-51 cells (30K cells/well) were plated and let to adhere overnight. Cells were treated with compounds typically using a serial dilution ranging from 30 μM to 0.1 nM for 6 h. Compounds were stored at 10 mM DMSO stocks. Vehicle (DMSO), positive (CC-885, 10 μM) and rescue controls (positive control plus 0.2 μM bortezomib) were also included at this stage. Cells were subsequently rinsed with PBS and fixed in 10% Formalin solution (50 μL, Sigma HT5011)) for 20 mins at room temperature. Following three consecutive PBS washes (100 μL), cells were permeabilized in 0.1% Triton X-100 in PBS (Sigma 93443, 50 μL) for 15 min. at room temperature. Following three further PBS washes, 50 μL blocking buffer (1% BSA, Sigma A4503, in PBS) was added for 45 min for signal-to noise reduction. Primary antibody (human GSPT1, Sigma HPA052488) was diluted in blocking buffer (dil.1/300, 35 μL/well) and incubated with the cells overnight at 4° C. After three PBS washes, Alexa-fluor 488 coupled secondary antibodies (Invitrogen, A32731, dil. 1/1000), Alexa-fluor 647-Phalloidin (Invitrogen, A22287, dil. 1/200) and DAPI (Thermo, #62248, dil. 1/1000) were diluted in blocking buffer and incubated with the samples for 2 h at room temperature. After three final PBS washes, samples were conserved in 100 μL PBS in the dark, until measurement. Image acquisition was performed on the Operetta High-Content Imager (Perkin-Elmer). Fluorescence intensity of […] (GSPT1), Alexa-Fluor 647 (Actin) and DAPI (Nucleus) were measured. For the determination of GSPT1 DC50 values, a custom algorithm implemented in the PerkinElmer image analysis software Harmony-Acapella® was developed. After user-defined setting of adjustment parameters, the analysis was run identically without human intervention for all image fields. DAPI staining of the nuclei was used to determine the location of cells using standard nuclei detection modules. Segmentation artifacts were removed by threshold-based filters for area, roundness and intensity. The outline of the cells was determined analogously from the sum of the normalized, smoothed DAPI and Actin channel, starting from each nucleus. The Alexa-Fluor 488 (GSPT1) signal intensity in each cell was finally measured, in order to obtain a Mean intensity per cell. GSPT1 degradation (DC50) was calculated after normalization to controls and data import in CDD vault Database, using non-linear regression.
In Table 2, each compound is assigned a class (HTRF class) indicating the ability for Cereblon binding by means of their HTRF IC50 values according to […]: A, B, C or D. According to the code, A represents an IC50 value of ≤100 nM, B represents an IC50 value>100 nM and ≤1000 nM, C represents an IC50 value>1000 nM. IF Class assigns each compound a code indicating the ability for GSPT1 degradation: A, B or C. According to the code, A represents a DC50 value of ≤30 nM, B represents a DC50 value>30 nM and ≤300 nM and C represents a DC50 value of >300 nM.
For `O=C1CCC(c2c(F)cc(N3CC(OC(=O)NC45CCC(CC4)CC5)C3)cc2F)C(=O)N1` (stereo not shown) [Compound 98, 1-(4-(2,6-dioxopiperidin-3-yl)-3,5-difluorophenyl)azetidin-3-yl bicyclo[2.2.2]octan-1-ylcarbamate], the DC50 is no more than 30 nM. On to `O=C1CCC(c2c(F)cc(N3CC(OC(=O)N4CC5(COC5)C4)C3)cc2F)C(=O)N1` (stereo not shown) [Compound 105, 1-(4-(2,6-dioxopiperidin-3-yl)-3,5-difluorophenyl)azetidin-3-yl 2-oxa-6-azaspiro[3.3]heptane-6-carboxylate], for which the DC50 was greater than 300 nM. With `O=C1CCC(c2c(F)cc(N3CC(OC(=O)NCC45C[C@H]6C[C@@H](C4)C[C@@H](C5)C6)C3)cc2F)C(=O)N1` (stereo partly drawn) [Compound 106, 1-(4-(2,6-dioxopiperidin-3-yl)-3,5-difluorophenyl)azetidin-3-yl((3R,5R,7R)-adamantan-1-ylmethyl) carbamate] the figure was no more than 30 nM; with `O=C1CCC(c2c(F)cc(N3CC(OC(=O)NC4[C@H]5C[C@@H]6C[C@@H](C[C@H]4C6)C5)C3)cc2F)C(=O)N1` (stereo partly drawn) [Compound 107, 1-(4-(2,6-dioxopiperidin-3-yl)-3,5-difluorophenyl)azetidin-3-yl (1R,3S,5R,7R)-adamantan-2-ylcarbamate], 30 to 300 nM; with `COCC(COC)NC(=O)OC1CN(c2cc(F)c(C3CCC(=O)NC3=O)c(F)c2)C1` (stereo not shown) [Compound 108, 1-(4-(2,6-dioxopiperidin-3-yl)-3,5-difluorophenyl)azetidin-3-yl (1,3-dimethoxypropan-2-yl)carbamate], greater than 300 nM. To `O=C1CCC(c2c(F)cc(N3CC(OC(=O)NCCC(F)(F)F)C3)cc2F)C(=O)N1` (stereo not shown) [Compound 109, 1-(4-(2,6-dioxopiperidin-3-yl)-3,5-difluorophenyl)azetidin-3-yl (3,3,3-trifluoropropyl)carbamate] belongs greater than 300 nM.

For `O=C1CCC(c2c(F)cc(N3CC(NC(=O)N[C@@H]4CCC(F)(F)C4)C3)cc2F)C(=O)N1` (stereo partly drawn) [Compound 111, 1-((R)-3,3-difluorocyclopentyl)-3-(1-(4-(2,6-dioxopiperidin-3-yl)-3,5-difluorophenyl)azetidin-3-yl)urea], the DC50 was greater than 300 nM. To `O=C1CCC(c2c(F)cc(N3CC(OC(=O)NC45CCC(C4)C5)C3)cc2F)C(=O)N1` (stereo not shown) [Compound 112, 1-(4-(2,6-dioxopiperidin-3-yl)-3,5-difluorophenyl)azetidin-3-ylbicyclo[2.1.1]hexan-1-ylcarbamate] belongs 30 to 300 nM. With `CN1CCC(CNC(=O)OC2CN(c3cc(F)c(C4CCC(=O)NC4=O)c(F)c3)C2)CC1` (stereo not shown) [Compound 114, 1-(4-(2,6-dioxopiperidin-3-yl)-3,5-difluorophenyl)azetidin-3-yl((1-methylpiperidin-4-yl)methyl)carbamate] the figure was greater than 300 nM; with `C[C@H](NC(=O)OC1CN(c2cc(F)c(C3CCC(=O)NC3=O)c(F)c2)C1)C1CCCCC1` (stereo partly drawn) [Compound 115, 1-(4-(2,6-dioxopiperidin-3-yl)-3,5-difluorophenyl)azetidin-3-yl((S)-1-cyclohexylethyl)carbamate], no more than 30 nM. For the compound `O=C1CCC(c2c(F)cc(N3CC(OC(=O)NC4CCSCC4)C3)cc2F)C(=O)N1` (stereo not shown) [Compound 116, 1-(4-(2,6-dioxopiperidin-3-yl)-3,5-difluorophenyl)azetidin-3-yl(tetrahydro-2H-thiopyran-4-yl)carbamate], the DC50 is no more than 30 nM.

With `O=C1CCC(c2c(F)cc(N3CC(OC(=O)NCC4CCOCC4)C3)cc2F)C(=O)N1` (stereo not shown) [Compound 117, 1-(4-(2,6-dioxopiperidin-3-yl)-3,5-difluorophenyl)azetidin-3-yl ((tetrahydro-2H-pyran-4-yl)methyl)carbamate], the DC50 is greater than 300 nM. With `CSCCNC(=O)OC1CN(c2cc(F)c(C3CCC(=O)NC3=O)c(F)c2)C1` (stereo not shown) [Compound 118, 1-(4-(2,6-dioxopiperidin-3-yl)-3,5-difluorophenyl)azetidin-3-yl(2-(methylthio)ethyl)carbamate] the figure was greater than 300 nM.
